Reference: PubChem BioAssay (NCI)
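GI50 = concentration required for 50% inhibition of growth. TGI marks complete inhibition of growth.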

Columns and labels:
Experiment in all cases: NCI-60 cell line screen, 384-well format
[1] = system: T-47D breast
[2] = system: CAKI-1 renal
[3] = system: EKVX NSCLC
[4] = system: MOLT-4 leukemia
[5] = system: UACC-62 melanoma
[6] = system: COLO 205 colon
[7] = system: OVCAR-5 ovarian
[8] = system: HL-60(TB) leukemia
[9] = system: NCI-H460 NSCLC
[10] = system: OVCAR-3 ovarian
[11] = system: MDA-MB-468 breast
[12] = system: BT-549 breast
[13] = system: SR leukemia
[14] = system: HOP-62 NSCLC
[15] = system: MDA-MB-231 breast
[16] = system: NCI/ADR-RES ovarian
[17] = system: SW-620 colon
[18] = system: HS 578T breast
[19] = system: UO-31 renal
[20] = system: DU-145 prostate
[21] = system: RXF 393 renal
[22] = system: A549 NSCLC
[23] = system: HCT-15 colon
[24] = system: UACC-257 melanoma
[25] = system: SF-295 CNS
[26] = system: CCRF-CEM leukemia
[27] = system: HOP-92 NSCLC
[28] = system: KM12 colon
[29] = system: SK-MEL-5 melanoma
[30] = system: U251 glioblastoma
[31] = system: NCI-H226 lung
[32] = system: SNB-19 CNS
[33] = system: TK-10 renal
[34] = system: A498 renal
[35] = system: HCC-2998 colon
[36] = system: ACHN renal
[37] = system: SK-MEL-2 melanoma
[38] = system: SF-539 CNS
[39] = system: SK-OV-3 ovarian
[40] = system: MDA-MB-435 melanoma
[41] = system: RPMI-8226 leukemia
[42] = system: SN12C renal
[43] = system: K-562 leukemia
[44] = system: NCI-H522 lung
[45] = system: SF-268 CNS
[46] = system: HCT-116 colon
[47] = system: NCI-H23 lung

`CC(C)(O)CNc1nc(Nc2ccnc(C(F)(F)F)c2)nc(-c2cccc(C(F)(F)F)n2)n1` was tested, and the GI50 [1] was 9.87 µM, the TGI [1] was 23 µM and the GI50 [2] was 21.3 µM. For the same molecule, the TGI [2] was 45.2 µM, the GI50 [3] was 19 µM and the TGI [3] was 38.5 µM. For the same molecule, the GI50 [4] was 13.7 µM, the TGI [4] was 26.8 µM and the GI50 [5] was 17.8 µM. For the same molecule, the TGI [5] was 31.8 µM, the GI50 [6] was 18.5 µM and the TGI [6] was 34.8 µM. For the same molecule, the GI50 [7] was 27.3 µM, the TGI [7] was 73.5 µM and the GI50 [8] was 14.9 µM. It also gave a TGI [8] of 28.3 µM, a GI50 [9] of 17.5 µM and a TGI [9] of 32.6 µM. It also gave a GI50 [10] of 17.6 µM, a TGI [10] of 32.9 µM and a GI50 [11] of 20.3 µM. For the same molecule, the TGI [11] was 35 µM, the GI50 [12] was 16 µM and the TGI [12] was 29.7 µM. The GI50 [13] was 4.82 µM, the TGI [13] was 17.5 µM and the GI50 [14] was 15.1 µM. It also gave a TGI [14] of 28.8 µM, a GI50 [15] of 18.7 µM and a TGI [15] of 34.5 µM. For the same molecule, the GI50 [16] was 13.9 µM, the TGI [16] was 27.5 µM and the GI50 [17] was 24.4 µM. It also gave a TGI [17] of 55.2 µM, a GI50 [18] of 14.6 µM and a TGI [18] of 29.5 µM. It also gave a GI50 [19] of 21.1 µM, a TGI [19] of 40.9 µM and a GI50 [20] of 16.3 µM. For the same molecule, the TGI [20] was 31.6 µM, the GI50 [21] was 12.3 µM and the TGI [21] was 27.5 µM. It also gave a GI50 [22] of 17.3 µM, a TGI [22] of 35.4 µM and a GI50 [23] of 13.5 µM. The TGI [23] was 28.1 µM, the GI50 [24] was 19.4 µM and the TGI [24] was 33.8 µM. It also gave a GI50 [25] of 16 µM, a TGI [25] of 29.8 µM and a GI50 [26] of 14.4 µM. It also gave a TGI [26] of 28.1 µM, a GI50 [27] of 19.3 µM and a TGI [27] of 37.7 µM. It also gave a GI50 [28] of 17.9 µM, a TGI [28] of 34.8 µM and a GI50 [29] of 13.8 µM. For the same molecule, the TGI [29] was 26.8 µM, the GI50 [30] was 18.8 µM and the TGI [30] was 38.7 µM. For the same molecule, the GI50 [31] was 16.2 µM, the TGI [31] was 31.7 µM and the GI50 [32] was 32.3 µM. It also gave a TGI [32] of 87.2 µM, a GI50 [33] of 19.8 µM and a TGI [33] of 43.4 µM. For the same molecule, the GI50 [34] was 19.9 µM, the TGI [34] was 39.9 µM and the GI50 [35] was 16.3 µM. For the same molecule, the TGI [35] was 30.4 µM, the GI50 [36] was 20.9 µM and the TGI [36] was 40.5 µM. It also gave a GI50 [37] of 0.265 µM, a TGI [37] of 1.17 µM and a GI50 [38] of 16.3 µM. The TGI [38] was 30.9 µM, the GI50 [39] was 20.9 µM and the TGI [39] was 40.9 µM. For the same molecule, the GI50 [40] was 19.9 µM, the TGI [40] was 37.7 µM and the GI50 [41] was 18.7 µM. The TGI [41] was 32.9 µM, the GI50 [42] was 19.8 µM and the TGI [42] was 40.8 µM. It also gave a GI50 [43] of 14.7 µM, a TGI [43] of 28.7 µM and a GI50 [44] of 17.5 µM. It also gave a TGI [44] of 35.4 µM, a GI50 [45] of 20.2 µM and a TGI [45] of 40.3 µM. It also gave a GI50 [46] of 17.3 µM, a TGI [46] of 33.2 µM and a GI50 [47] of 18.7 µM. It also gave a TGI [47] of 35.6 µM.
